In brackets after ≈: the same amount, converted by molar mass. Where two headings read alike, the source gives them in different places.
Columns and labels:
Assay in all cases: agar serial dilution test (MIC)
Format in all cases: cell-based
E. coli 01 = test system: E. coli 01
Method: (§1) The antibiotic activity in vitro of some compounds according to the invention and of some previously known compounds was tested by means of an agar serial dilution test. The following compounds were tested: 7β-[2-(2-Aminothiazol-4-yl)-2-diethylphosphoryloxyiminoacetamido] cephalosporanic acid (designated ES 643, 7β-[2-(2-amino- thiazol-4-yl)-2-dimethylphosphoryloxyiminoacetamido] cephalosporanic acid (designated ES 671), 7β-[2-(2-amino- thiazol-4-yl)-2-dimorpholinophosphoryloxyiminoacetamido] cephalosporanic acid (designated ES 656), 7β-[2-(2-amino- thiazol-4-yl)-2-methylmethylphosphonyloxyiminoacetamido] cephalosporanic acid (designated ES 682), 7β-[2-(2-amino- thiazol-4-yl)-2-hydroxyiminoacetamido] cephalosporanic acid (designated A), cefuroxime (designated B), and cephalotin (designated C). MIC designates minimum inhibitory concentration.

E. coli 04 = test system: E. coli 04
Method: as §1

K. edwardsii K1 = test system: K. edwardsii K1
Method: as §1

K. pneumoniae K8 = settings: Klebsiella pneumoniae
Method: as §1

P. mirabilis 2255 = test system: P. mirabilis 2255
Method: as §1

P. mirabilis 2311 = test system: P. mirabilis 2311
Method: as §1

P. mirabilis 682 = test system: P. mirabilis 682
Method: as §1

P. morganii 18 = test system: P. morganii 18
Method: as §1

P. morganii 69 = test system: P. morganii 69
Method: as §1

P. vulgaris 16868 = test system: P. vulgaris 16868
Method: as §1

P. vulgaris 17028 = test system: P. vulgaris 17028
Method: as §1

P. vulgaris 5209 = test system: P. vulgaris 5209
Method: as §1

S. albus 12228 = test system: S. albus 12228
Method: as §1

S. albus 3348 = test system: S. albus 3348
Method: as §1

S. albus 3578 = test system: S. albus 3578
Method: as §1

S. aureus 13709 = test system: S. aureus 13709
Method: as §1

S. aureus 209P = settings: Staphylococcus aureus
Method: as §1

S. aureus 3349 = test system: S. aureus 3349
Method: as §1

S. aureus 3356 = test system: S. aureus 3356
Method: as §1

S. pyogenes 12334 = test system: S. pyogenes 12334
Method: as §1

S. pyogenes 12384 = test system: S. pyogenes 12384
Method: as §1

[1] = Escherichia coli, 01, read-out: MIC value in μg/ml
[2] = Escherichia coli, 04, read-out: MIC value in μg/ml
[3] = K8, read-out: MIC value in μg/ml
[4] = Proteus mirabilis, 2255, read-out: MIC value in μg/ml
[5] = Proteus mirabilis, 2311, read-out: MIC value in μg/ml
[6] = Proteus mirabilis, 682, read-out: MIC value in μg/ml
[7] = Morganella morganii, 18, read-out: MIC value in μg/ml
[8] = Morganella morganii, 69, read-out: MIC value in μg/ml
[9] = Proteus vulgaris, 16868, read-out: MIC value in μg/ml
[10] = Proteus vulgaris, 17028, read-out: MIC value in μg/ml
[11] = Proteus vulgaris, 5209, read-out: MIC value in μg/ml
[12] = Staphylococcus albus, 12228, read-out: MIC value in μg/ml
[13] = Staphylococcus albus, 3348, read-out: MIC value in μg/ml
[14] = Staphylococcus albus, 3578, read-out: MIC value in μg/ml
[15] = Staphylococcus aureus, 13709, read-out: MIC value in μg/ml
[16] = 209P, read-out: MIC value in μg/ml
[17] = Staphylococcus aureus, 3349, read-out: MIC value in μg/ml
[18] = Staphylococcus aureus, 3356, read-out: MIC value in μg/ml
[19] = Streptococcus pyogenes, 12334, read-out: MIC value in μg/ml
[20] = Streptococcus pyogenes, 12384, read-out: MIC value in μg/ml

## CC(=O)OCC1=C(C(=O)O)N2C(=O)[C@@H](NC(=O)Cc3cccs3)[C@H]2SC1 [C, cephalotin, reference compound]
E. coli 01; [1]
  MIC: 6.2 µg/mL (≈ 15.6 µM)
E. coli 04; [2]
  MIC: 12.5 µg/mL (≈ 31.5 µM)
K. edwardsii K1; read-out: MIC value in μg/ml
  MIC: 0.2 µg/mL (≈ 0.504 µM)
K. pneumoniae K8; [3]
  MIC: 50 µg/mL (≈ 126 µM)
P. mirabilis 2255; [4]
  MIC: 3.1 µg/mL (≈ 7.82 µM)
P. mirabilis 2311; [5]
  MIC: 12.5 µg/mL (≈ 31.5 µM)
P. mirabilis 682; [6]
  MIC: 6.2 µg/mL (≈ 15.6 µM)
P. morganii 18; [7]
  MIC: > 100 µg/mL
P. morganii 69; [8]
  MIC: > 100 µg/mL
P. vulgaris 16868; [9]
  MIC: > 100 µg/mL
P. vulgaris 17028; [10]
  MIC: > 100 µg/mL
P. vulgaris 5209; [11]
  MIC: > 100 µg/mL
S. albus 12228; [12]
  MIC: 0.2 µg/mL (≈ 0.504 µM)
S. albus 3348; [13]
  MIC: < 0.1 µg/mL
S. albus 3578; [14]
  MIC: < 0.1 µg/mL
S. aureus 13709; [15]
  MIC: 0.4 µg/mL (≈ 1.01 µM)
S. aureus 209P; [16]
  MIC: < 0.1 µg/mL
S. aureus 3349; [17]
  MIC: 0.4 µg/mL (≈ 1.01 µM)
S. aureus 3356; [18]
  MIC: < 0.1 µg/mL
S. pyogenes 12334; [19]
  MIC: < 0.1 µg/mL
S. pyogenes 12384; [20]
  MIC: < 0.1 µg/mL

## CCOP(=O)(OCC)ON=C(C(=O)NC1C(=O)N2C(C(=O)O)=C(COC(C)=O)CSC12)c1csc(N)n1 (stereo not drawn) [ES 643, 7β-[2-(2-Aminothiazol-4-yl)-2-diethylphosphoryloxyiminoacetamido] cephalosporanic acid]
E. coli 01; [1]
  MIC: 0.2 µg/mL (≈ 0.346 µM)
E. coli 04; [2]
  MIC: 0.8 µg/mL (≈ 1.39 µM)
K. edwardsii K1; read-out: MIC value in μg/ml
  MIC: 0.8 µg/mL (≈ 1.39 µM)
K. pneumoniae K8; [3]
  MIC: 1.6 µg/mL (≈ 2.77 µM)
P. mirabilis 2255; [4]
  MIC: < 0.1 µg/mL
P. mirabilis 2311; [5]
  MIC: < 0.1 µg/mL
P. mirabilis 682; [6]
  MIC: < 0.1 µg/mL
P. morganii 18; [7]
  MIC: 1.6 µg/mL (≈ 2.77 µM)
P. morganii 69; [8]
  MIC: 0.2 µg/mL (≈ 0.346 µM)
P. vulgaris 16868; [9]
  MIC: 0.2 µg/mL (≈ 0.346 µM)
P. vulgaris 17028; [10]
  MIC: 0.2 µg/mL (≈ 0.346 µM)
P. vulgaris 5209; [11]
  MIC: 0.8 µg/mL (≈ 1.39 µM)
S. albus 12228; [12]
  MIC: 1.6 µg/mL (≈ 2.77 µM)
S. albus 3348; [13]
  MIC: 0.8 µg/mL (≈ 1.39 µM)
S. albus 3578; [14]
  MIC: 1.6 µg/mL (≈ 2.77 µM)
S. aureus 13709; [15]
  MIC: 3.1 µg/mL (≈ 5.37 µM)
S. aureus 209P; [16]
  MIC: 3.1 µg/mL (≈ 5.37 µM)
S. aureus 3349; [17]
  MIC: 1.6 µg/mL (≈ 2.77 µM)
S. aureus 3356; [18]
  MIC: 1.6 µg/mL (≈ 2.77 µM)
S. pyogenes 12334; [19]
  MIC: < 0.1 µg/mL
S. pyogenes 12384; [20]
  MIC: < 0.1 µg/mL

## CC(=O)OCC1=C(C(=O)O)N2C(=O)C(NC(=O)C(=NOP(=O)(N3CCOCC3)N3CCOCC3)c3csc(N)n3)C2SC1 (stereo not drawn) [ES 656, 7β-[2-(2-amino-thiazol-4-yl)-2-dimorpholinophosphoryloxyiminoacetamido] cephalosporanic acid]
E. coli 01; Escherichia coli, E. coli 01, read-out: MIC value
  MIC: < 0.1 µg/mL
E. coli 04; Escherichia coli, E. coli 04, read-out: MIC value
  MIC: 0.2 µg/mL (≈ 0.303 µM)
K. edwardsii K1; K. edwardsii K1, read-out: MIC value
  MIC: 1.6 µg/mL (≈ 2.43 µM)
K. pneumoniae K8; K. pneumoniae K8, read-out: MIC value
  MIC: 0.4 µg/mL (≈ 0.606 µM)
P. mirabilis 2255; Proteus mirabilis, P. mirabilis 2255, read-out: MIC value
  MIC: 0.2 µg/mL (≈ 0.303 µM)
P. mirabilis 2311; Proteus mirabilis, P. mirabilis 2311, read-out: MIC value
  MIC: 0.2 µg/mL (≈ 0.303 µM)
P. mirabilis 682; Proteus mirabilis, P. mirabilis 682, read-out: MIC value
  MIC: < 0.1 µg/mL
P. morganii 18; Morganella morganii, P. morganii 18, read-out: MIC value
  MIC: 1.6 µg/mL (≈ 2.43 µM)
P. morganii 69; Morganella morganii, P. morganii 69, read-out: MIC value
  MIC: 3.1 µg/mL (≈ 4.7 µM)
P. vulgaris 16868; Proteus vulgaris, P. vulgaris 16868, read-out: MIC value
  MIC: 12.5 µg/mL (≈ 18.9 µM)
P. vulgaris 17028; Proteus vulgaris, P. vulgaris 17028, read-out: MIC value
  MIC: 25 µg/mL (≈ 37.9 µM)
P. vulgaris 5209; Proteus vulgaris, P. vulgaris 5209, read-out: MIC value
  MIC: 50 µg/mL (≈ 75.8 µM)
S. albus 12228; Staphylococcus albus, S. albus 12228, read-out: MIC value
  MIC: 0.2 µg/mL (≈ 0.303 µM)
S. albus 3348; Staphylococcus albus, S. albus 3348, read-out: MIC value
  MIC: 0.2 µg/mL (≈ 0.303 µM)
S. albus 3578; Staphylococcus albus, S. albus 3578, read-out: MIC value
  MIC: 0.2 µg/mL (≈ 0.303 µM)
S. aureus 13709; Staphylococcus aureus, S. aureus 13709, read-out: MIC value
  MIC: 0.2 µg/mL (≈ 0.303 µM)
S. aureus 209P; S. aureus 209P, read-out: MIC value
  MIC: 0.2 µg/mL (≈ 0.303 µM)
S. aureus 3349; Staphylococcus aureus, S. aureus 3349*, penicillin-resistant strain, read-out: MIC value
  MIC: 0.4 µg/mL (≈ 0.606 µM)
S. aureus 3356; Staphylococcus aureus, S. aureus 3356*, penicillin-resistant strain, read-out: MIC value
  MIC: 0.2 µg/mL (≈ 0.303 µM)
S. pyogenes 12334; Streptococcus pyogenes, S. pyogenes 12334, read-out: MIC value
  MIC: < 0.1 µg/mL
S. pyogenes 12384; Streptococcus pyogenes, S. pyogenes 12384, read-out: MIC value
  MIC: < 0.1 µg/mL
